Values joined by “and” are separate entries in the source; they are usually repeats but may differ in a detail not shown here. Equal entries are not always repeated.
Legend:
[1] = Functional metabolic assay to measure dose dependent changes in cell viability from drug treatment in Vero E6/TMPRSS2 cells (cotreated with P-gp inhibitor, Elacridar). […] Cytotoxicity is reported via measuring absorbance and analysis of MTT/MTS assays in uninfected cells. The assay has been performed by Icahn School of Medicine at Mount Sinai.; assay type: toxicity, cell-based, VeroE6/TMPRSS2; conditions: chlorocebus sabaeus, p-gp concentration 2 uM
[2] = (§1) Functional metabolic assay to measure dose dependent changes in cell viability from drug treatment in Vero E6/TMPRSS2 cells. Cells are treated with antiviral candidates that have been serially diluted. Cytotoxicity is reported via measuring absorbance and analysis of MTT/MTS assays in uninfected cells. The assay has been performed by Icahn School of Medicine at Mount Sinai.; assay type: toxicity, cell-based, VeroE6/TMPRSS2; conditions: chlorocebus sabaeus; for CC50: Vero E6/TMPRSS2 cells; for CC10: veroe6/tmprss2
[3] = Functional assay to measure dose dependent changes in cell viability from drug treatment in Vero E6 miRFP670 cells (cotreated with P-gp inhibitor, CP100356) that are infected with Dengue virus type 2 New Guinea C. […] Cytotoxicity is reported via via analysis of DAPI count using high-content imager. The assay has been performed by KU Leuven.; assay type: toxicity, cell-based, Vero C1008; conditions: chlorocebus sabaeus
[4] = (§2) Functional CPE-based assay to measure dose dependent changes in cell viability from drug treatment in Huh-7 cells. Cells are treated with antiviral candidates that have been serially diluted. Cytotoxicity is reported via analysis of MTT/ MTS assays in uninfected cells. The assay has been performed by National Institute of Allergy and Infectious Diseases.; assay type: toxicity; conditions: human
[5] = as §2, with “Vero E6 miRFP670” for “Huh-7”, “of” for “of MTT/”, “KU Leuven.” for “National Institute of Allergy and Infectious Diseases.”; assay type: toxicity, Vero C1008; conditions: chlorocebus sabaeus
[6] = Functional assay to measure dose dependent changes in cell viability from drug treatment in Vero E6 miRFP670 cells that are infected with Dengue virus type 2 New Guinea C. Cells are treated with antiviral candidates that have been serially diluted. Cytotoxicity is reported via via analysis of DAPI count using high-content imager. The assay has been performed by KU Leuven.; assay type: toxicity, cell-based, Vero C1008; conditions: chlorocebus sabaeus
[7] = as §2, with “Vero E6 miRFP670 cells (cotreated with P-gp inhibitor, CP100356).” for “Huh-7 cells.”, “of” for “of MTT/”, “KU Leuven.” for “National Institute of Allergy and Infectious Diseases.”; assay type: toxicity, Vero C1008; conditions: chlorocebus sabaeus, Vero E6 miRFP670 cells, with CP100356 (P-gp inhibitor, concentration not stated)
[8] = as §1, with “HeLa” for “Vero E6/TMPRSS2”, “via” for “via measuring absorbance and”, “KU Leuven.” for “Icahn School of Medicine at Mount Sinai.”; assay type: toxicity, cell-based; conditions: human
[9] = Vero E6/TMPRSS2 cells, with Elacridar (P-gp inhibitor, concentration not stated)
[10] = with CP100356 (P-gp inhibitor, concentration not stated), p-gp concentration 500 nM
[11] = vero c1008, p-gp concentration 500 nM

Structure (SMILES)	CC50 [1, 9]	CC10 ([1]; veroe6/tmprss2)	CC50 [2]	CC10 [2]	CC50 [3, 10]	CC50 [4]	CC50 ([5]; Vero E6 miRFP670 cells)	CC50 ([1]; veroe6/tmprss2)	further results
NCc1ccc(-c2ncc(OCC3CCNCC3)nc2-c2ccc(-c3ccoc3)cc2)cc1	49.9 µM	39.762 µM	> 50 µM	> 50 µM	1.7 µM	5.5 µM			
CCCC[C@H](NC(C)=O)C(=O)N[C@H](C(=O)NCc1ccc(C(N)=O)cc1)c1ccc(OCc2ccccc2)cc1	> 50 µM	> 50 µM			> 10 µM	15 µM			
NCc1ccc(-c2ncc(OCC3CCNCC3)nc2-c2ccc(C3CCOCC3)cc2)cc1					> 10 µM	32 µM			
O=C(Nc1ccc2c(c1)B(O)OC2)c1cccc(OCc2c(Cl)cccc2Cl)c1			> 50 µM	> 50 µM	> 10 µM	1.9 µM			
CC1(C)Cc2sc(NC(=O)Cc3ccc(S(N)(=O)=O)cc3)c(C#N)c2CN1CC1CCCCC1						16 µM	> 50 µM		
O=C(Nc1ccc2c(c1)CNC2)c1cc(Cl)cc2[nH]ncc12	< 0.023 µM	> 50 µM					49.7 µM		CC50 ([5]; vero c1008): > 50 µM; CC50 ([3]; vero c1008, p-gp concentration 100 nM): 5.47 µM; CC50 [6]: 6.72 µM; CC50 ([7]; p-gp concentration 100 nM): > 50 µM
O=C(O)c1cc(Oc2ccc(F)cc2)c(F)cc1NS(=O)(=O)c1ccc(Oc2ccccc2Cl)cc1	> 50 µM				5.31 µM	20 µM		44 µM	
c1ccc2sc(C3CCN(Cc4c[nH]c5ccccc45)CC3)nc2c1	49.2 µM				5.31 µM	18 µM		> 50 µM	
CC(C)CNC(=O)c1cc(Cl)c(F)cc1NS(=O)(=O)c1ccc(Oc2ccccc2Cl)cc1	49.4 µM		> 50 µM	> 50 µM	> 10 µM	3.1 µM	4.96 µM	38.1 µM	CC50 ([5]; vero c1008): 5.79 µM and 3.21 µM; CC50 [3, 11]: 5.35 µM
CC(C)CNC(=O)c1cc(Cl)ccc1NS(=O)(=O)c1ccc(Oc2ccccc2Cl)cc1			> 50 µM	> 50 µM	> 10 µM	6.5 µM	4.76 µM	> 50 µM	
O=C(Nc1ccc2c(c1)CNC2)c1ccnc2[nH]ccc12									CC50 ([8]; HeLa cells): > 50 µM; CC10 ([8]; hela): > 50 µM
c1cc(C2CCN(Cc3c[nH]c4ccccc34)CC2)c2ccncc2c1	> 50 µM	> 50 µM	> 50 µM	> 50 µM		32 µM			CC50 [3, 11]: > 50 µM
O=C(NCC(F)(F)F)c1cc(Cl)c(F)cc1NS(=O)(=O)c1ccc(Oc2ccccc2Cl)cc1					> 10 µM	1.9 µM	3.98 µM		CC50 [3, 11]: 5.65 µM
COc1cc(N[C@@H](C(=O)N2CCc3ccc(OC(F)(F)F)cc32)c2ccc(Cl)cc2)cc(OCCCC(=O)O)c1		> 10 µM and 7.237 µM				19 µM		> 10 µM and 37.7 µM	CC50 ([5]; vero c1008): > 50 µM and 19.7 µM and 11.3 µM; CC50 ([7]; p-gp concentration 500 nM): 11.1 µM
COc1cc(N[C@@H](C(=O)c2c[nH]c3ccc(OC(F)(F)F)cc23)c2ccc(Cl)cc2OC)cc(S(C)(=O)=O)c1	> 10 µM		> 10 µM	> 10 µM		5 µM			CC50 ([7]; p-gp concentration 500 nM): 1.49 µM
